Starred links: 1 amine or outer side, 2 acyl side, 3 side chain; linkers in the order of their positions; H or OH if unused. Non-standard residues stand in square brackets, D forms with d. Residues, ends and D or L forms follow the SMILES beside them. Groups on a side chain read outwards from the residue. *: point of attachment. C20 diacid = O=C(O)CCCCCCCCCCCCCCCCCCC(=O)*; γGlu = O=C(O)[C@H](CCC(=O)[*:2])N[*:1]; εLys = N[C@@H](CCCCN[*:1])C(=O)[*:2]; Aib = CC(C)(N)C(=O)O
Assays:
[1] = tested on: diet-induced obese (DIO) mice; experiment: Pharmacodynamic study in DIO mice: body weight and food intake; assay type: in vivo, C57BL/6J male mice; conditions: DIO mice, mean ± SEM; for Absolute BW Day 0: baseline Day 0 (14-day study); for Absolute BW Day 14 / Change in BW Day 14 / Cumulative food intake Day 14: 14 days; for Cumulative food intake Day 14: n = 2-3
Method: The purpose of this example is to assess the in vivo effect of select compounds on pharmacodynamic parameters in diet-induced obese (DIO) mice. The animals were treated once daily via subcutaneous injection with a liquid formulation of the test compound to assess effects on body weight, foot intake, and glucose tolerance. For comparison, the known GLP-1R/GIPR co-agonist tirzepatide and a surrogate of the GLP-1R agonist semaglutide were used as references. The semaglutide surrogate has the same pharmacological properties of semaglutide but a slightly modified structure in which the γGlu element of the substituent has been changed from the L-isomer to the D-isomer.
C57BL/6J male mice were purchased from Jackson Laboratories at approximately 8 weeks of age. Mice were group housed and fed a high-fat, high-sugar diet from Research Diets (D12331). Mice were maintained on this diet for 12 weeks prior to initializing the pharmacology studies. Mice exceeding a measured body weight of 50 grams were considered diet-induced obese (DIO) and included in pharmacology studies. Mice were exposed to a controlled 12 h:12 h light:dark cycle at ambient room temperature (22° C.) with ab libitum access to food and water. Studies were approved by and performed according to the guidelines of the Institutional Animal Care and Use Committee of the University of Cincinnati.
Animals were dosed once daily, subcutaneously with either vehicle or test compound. All injections occurred during the middle of the light phase at a fixed volume of 2-5 microliters per gram body weight.
All compounds in the study were formulated in the following buffer: 50 mM phosphate; 70 mM sodium chloride; 0.05% Tween-80, pH 7.4. Dosing solutions were formulated in glass vials and stored at 2-8° C. Dosing solutions were brought to room temperature before dosing and returned to 2-8° C. after dosing.
DIO mice were distributed into groups (n=8 per group) such that statistical variations in the mean and standard deviations of fat mass and body weight were minimized between groups. The animals were grouped to receive treatment as follows: Vehicle, tirzepatide, semaglutide surrogate or a GLP-1/GIP receptor co-agonists as described herein, where vehicle is 50 mM phosphate, 70 mM sodium chloride; 0.05% Tween-80, pH 7.4. The test compounds were dissolved in the vehicle, to stock concentrations of 100 μM, then diluted 50-200 fold in the vehicle to achieve the desired dosing solution concentrations. Animals were dosed subcutaneously once daily in the morning for each day of treatment with dosing solution at a volume of 2-5 μL per gram of body weight as necessary to achieve the desired dose (eg 0.3 nmol/kg, 1.0 nmol/kg, or 3.0 nmol/kg).
Body weight (BW) and food intake were measured immediately prior to dosing each day. The percent change in body was calculated individually for each mouse based on initial body weight prior to the first injection.

[2] = tested on: diet-induced obese (DIO) mice; experiment: Pharmacodynamic study in DIO mice: IPGTT (intraperitoneal glucose tolerance test); assay type: in vivo, C57BL/6J male mice; conditions: 14 days, glucose 2 g/kg i.p., mean ± SEM
Method: On the day of the glucose tolerance test, animals were fasted for 4 h. Food was removed and animals were transferred to fresh cages. Animals had access to water but not to food. Tail blood glucose levels were measured, and mice were injected (t=0) with an intra-peritoneal (i.p.) glucose load of 2 g/kg (200 mg/ml glucose solution, dose volume 10 ml/kg). Tail blood glucose levels were measured at times 0, 15, 30, 60, 90, 120 minutes following the i.p. glucose load. Stratification of the animals during the IPGTT was such that for example two mice from group 1 are dosed followed by two mice from group 2, 3, 4, before the next two mice from group 1, 2, 3 etc. were handled. This was to allow for equal distribution of “time of day” throughout all groups.

mouse GLP-1 receptor = target: T1, mouse GLP-1 receptor (Mus musculus, UniProt O35659)
T1 sequence (O35659 22-463): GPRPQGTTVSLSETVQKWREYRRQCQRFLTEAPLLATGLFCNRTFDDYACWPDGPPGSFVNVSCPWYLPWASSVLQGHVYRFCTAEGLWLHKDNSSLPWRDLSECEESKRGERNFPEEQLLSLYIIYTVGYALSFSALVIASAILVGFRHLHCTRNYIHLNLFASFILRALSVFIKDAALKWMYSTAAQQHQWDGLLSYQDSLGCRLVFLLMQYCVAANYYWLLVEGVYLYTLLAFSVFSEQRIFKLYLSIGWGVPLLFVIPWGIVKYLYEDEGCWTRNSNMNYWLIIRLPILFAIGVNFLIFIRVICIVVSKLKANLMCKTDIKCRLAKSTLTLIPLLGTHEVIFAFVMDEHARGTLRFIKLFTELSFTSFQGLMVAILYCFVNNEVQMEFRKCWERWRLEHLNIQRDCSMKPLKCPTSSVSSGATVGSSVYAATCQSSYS

[3] = Pharmacokinetic study in minipigs (terminal half-life after i.v. administration); assay type: in vivo; conditions: female, Göttingen, minipig, plasma, iv; minipigs, i.v. administration, harmonic mean; read-out: Terminal half-life t1/2 (converted)
Method: The purpose of this example is to determine the half-life in vivo of the derivatives of the present invention after i.v. administration to minipigs, i.e. the prolongation of their time in the body and thereby their time of action. This is done in a pharmacokinetic (PK) study, where the terminal half-life of the derivative in question is determined. By terminal half-life is generally meant the period of time it takes to […] certain plasma concentration, measured after the initial distribution phase. Female Göttingen minipigs were obtained from Ellegaard Göttingen Minipigs (Dalmose, Denmark) approximately 7-14 months of age and weighing from approximately 16-35 kg were used in the studies. The minipigs were housed individually and fed restrictedly once daily with SDS minipig diet (Special Diets Services, Essex, UK). After at 3 weeks of acclimatisation two permanent central venous catheters were implanted in vena cava caudalis in each animal. The animals were allowed 1 week recovery after the surgery, and were then used for repeated pharmacokinetic studies with a suitable wash-out period between successive derivative dosing. The animals were fasted for approximately 18 hours before dosing and from 0 to 4 hours after dosing, but had adlibitum access to water during the whole period. […] Blood samples (for example 0.8 mL) were collected in 8 mM EDTA buffer and then centrifuged at 4° C. and 1942 g for 10 minutes. Plasma was pipetted into Micronic tubes on dry ice and kept at -20° C. until analysed for plasma concentration of the compounds using ELISA, or a similar antibody-based assay, or LCMS. […] (Pharsight Inc., Mountain View, CA, USA), and the resulting terminal half-lives (harmonic mean) determined.

human glucagon receptor = human glucagon receptor (Homo sapiens, UniProt P47871); experiment: cell-based
Method: (§1) The in vitro functional potency is the measure of target receptor activation in a whole cell assay.
(§2) In vitro functional potency was determined by measuring the response of the target receptor in a reporter gene assay in individual cell lines. […] When the respective receptor is activated, it results in the production of cAMP, which in turn results in expression of the luciferase protein. When assay incubation is completed, luciferase substrate (luciferin) is added resulting in the enzymatic conversion of luciferin to oxyluciferin and producing bioluminescence. The luminescence is measured as the readout for the assay.
(§3) The cells lines used in these assays were BHK cells with BHKTS13 as a parent cell line. The cell lines were derived from a clone containing the CRE luciferase element and were established by further transfection with the respective receptor to obtain the relevant cell line.
(§4) The cells were cultured at 37° C. with 5% CO2 in Cell Culture Medium. They were aliquoted and stored in liquid nitrogen. The cells were kept in continuous culture and were seeded out the day before each assay.
(§5) GLP-1R and GcgR Cell Culture Medium consisted of DMEM medium with 10% FBS, 500 μg/mL G418, and 300 μg/mL hygromycin. GIPR Cell Culture Medium consisted of DMEM medium with 10% FBS, 400 μg/mL G418, and 300 μg/mL hygromycin. Assay Buffer consisted of DMEM w/o phenol red, 10 mM Hepes, 1×Glutamax, 1% ovalbumin, and 0.1% Pluronic F-68 with the addition of HSA at twice the final assay concentration.
(§6) • 1) Cells were plated at 5000 cells/well and incubated overnight in the assay plate. • 2) Cells were washed once in DPBS. • 3) Stocks of the test compounds and reference compounds in concentrations ranging from 100-300 μM were diluted 1:150 in Assay Buffer. Compounds were then diluted 1:10 in column 1 of a 96 deep well dilution plate and then carried across the row creating a 3.5 fold, 12 point dilution curve. • 4) Assay Buffer (50 μl aliquot) with or without HSA was added to each well in the assay plate. • 5) A 50 μl aliquot of compound or blank was transferred from the dilution plate to the assay plate containing the Assay Buffer with or without HSA. • 6) The assay plate was incubated for 3 h in a 5% CO2 incubator at 37° C. 7) The cells were washed once with DPBS. • 8) A 100 μl aliquot of DPBS was added to each well of the assay plate. • 9) A 100 μl aliquot of steadylite plus reagent (light sensitive) was added to each well of the assay plate. • 10) Each assay plate was covered with aluminum foil to protect it from light and shaken at 250 RPM for 30 min at room temperature. • 11) Each assay plate was read in a microtiter plate reader.
(§7) The data from the microtiter plate reader was first regressed in an Excel in order to calculate the x-axis, log scale concentrations based on the individual test compound's stock concentration and the dilutions of the assay. […] The software performs a non-linear regression (log(agonist) vs response). A minimum of two replicates was measured for each sample. The reported values are averages of the replicates.

mouse GIP receptor = target: T2, mouse GIP receptor (Mus musculus, UniProt Q0P543); experiment: cell-based
T2 sequence (Q0P543 19-460): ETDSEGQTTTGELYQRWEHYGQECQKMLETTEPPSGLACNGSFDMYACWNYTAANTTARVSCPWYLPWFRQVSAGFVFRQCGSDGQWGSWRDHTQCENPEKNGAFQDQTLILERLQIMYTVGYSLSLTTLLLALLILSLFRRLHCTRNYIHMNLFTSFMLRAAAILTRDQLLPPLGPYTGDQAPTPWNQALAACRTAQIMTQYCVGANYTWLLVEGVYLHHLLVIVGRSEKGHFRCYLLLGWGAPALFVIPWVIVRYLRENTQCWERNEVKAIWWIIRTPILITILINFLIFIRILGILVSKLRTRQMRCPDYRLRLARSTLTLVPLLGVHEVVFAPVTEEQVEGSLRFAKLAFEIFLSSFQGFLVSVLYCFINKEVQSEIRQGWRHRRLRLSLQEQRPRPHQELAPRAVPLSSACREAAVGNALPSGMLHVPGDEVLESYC

human GLP-1 receptor = human GLP-1 receptor (Homo sapiens, UniProt P43220); experiment: cell-based; conditions: hGLP-1R
human GLP-1 receptor, sequence (P43220 24-463): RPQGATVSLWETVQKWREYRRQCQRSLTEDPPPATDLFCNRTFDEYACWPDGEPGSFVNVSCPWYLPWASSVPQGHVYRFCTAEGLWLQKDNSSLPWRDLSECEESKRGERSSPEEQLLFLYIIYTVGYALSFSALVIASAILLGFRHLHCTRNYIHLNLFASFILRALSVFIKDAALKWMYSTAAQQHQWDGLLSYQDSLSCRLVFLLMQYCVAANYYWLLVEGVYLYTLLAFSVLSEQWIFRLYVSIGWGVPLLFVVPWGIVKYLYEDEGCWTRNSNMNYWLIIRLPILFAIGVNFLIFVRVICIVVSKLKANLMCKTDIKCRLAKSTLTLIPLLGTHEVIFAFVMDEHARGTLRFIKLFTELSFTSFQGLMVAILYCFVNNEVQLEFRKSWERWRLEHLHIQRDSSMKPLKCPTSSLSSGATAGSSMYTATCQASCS
Method: as §1, §2, §3, §4, §5, §6, §7

human glucagon receptor, sequence (P47871 26-477): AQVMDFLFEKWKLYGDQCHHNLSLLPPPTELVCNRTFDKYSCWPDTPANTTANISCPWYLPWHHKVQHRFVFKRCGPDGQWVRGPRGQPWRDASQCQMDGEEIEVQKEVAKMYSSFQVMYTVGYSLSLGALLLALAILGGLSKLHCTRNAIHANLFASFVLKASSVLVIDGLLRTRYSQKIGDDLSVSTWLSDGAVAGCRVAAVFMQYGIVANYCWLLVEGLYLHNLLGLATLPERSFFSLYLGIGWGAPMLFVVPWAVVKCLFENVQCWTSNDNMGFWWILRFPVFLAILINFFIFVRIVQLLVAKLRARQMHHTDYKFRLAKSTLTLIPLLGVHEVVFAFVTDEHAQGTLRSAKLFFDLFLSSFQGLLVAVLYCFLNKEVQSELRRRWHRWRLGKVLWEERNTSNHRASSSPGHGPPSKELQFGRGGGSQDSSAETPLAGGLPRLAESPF

Compound: Tirzepatide: known GLP-1R/GIPR co-agonist used as reference [reference compound]
- Absolute BW Day 0 ([1]; 0.3 nmol/kg group): 64.1 ± 1.7 grams
- Absolute BW Day 14 ([1]; 0.3 nmol/kg s.c. once daily): 58.2 ± 1.9 grams
- Change in BW Day 14 ([1]; 0.3 nmol/kg s.c. once daily): −9.4 ± 1.2%
- Cumulative food intake Day 14 ([1]; 0.3 nmol/kg s.c. once daily): 32.3 ± 1.9 grams
- Absolute BW Day 0 ([1]; 1.0 nmol/kg group): 63.5 ± 1.6 grams
- Absolute BW Day 14 ([1]; 1.0 nmol/kg s.c. once daily): 49.8 ± 1.8 grams
- Change in BW Day 14 ([1]; 1.0 nmol/kg s.c. once daily): −21.0 ± 1.2%
- Cumulative food intake Day 14 ([1]; 1.0 nmol/kg s.c. once daily): 18.4 ± 0.7 grams
- Absolute BW Day 0 ([1]; 3.0 nmol/kg group): 63.6 ± 2.5 grams
- Absolute BW Day 14 ([1]; 3.0 nmol/kg s.c. once daily): 45.1 ± 2.1 grams
- Change in BW Day 14 ([1]; 3.0 nmol/kg s.c. once daily): −29.0 ± 2.4%
- Cumulative food intake Day 14 ([1]; 3.0 nmol/kg s.c. once daily): 16.4 ± 2.3 grams
- iAUC, IPGTT Day 15 ([2]; 0.3 nmol/kg s.c. once daily): 13005 ± 2962 mg·min/dL
- iAUC, IPGTT Day 15 ([2]; 1.0 nmol/kg s.c. once daily): 10365 ± 3585 mg·min/dL
- iAUC, IPGTT Day 15 ([2]; 3.0 nmol/kg s.c. once daily): 8974 ± 1804 mg·min/dL

Compound: CC[C@H](C)[C@H](NC(=O)[C@H](CO)NC(=O)[C@H](Cc1ccc(O)cc1)NC(=O)[C@H](CC(=O)O)NC(=O)[C@H](CO)NC(=O)[C@@H](NC(=O)[C@H](Cc1ccccc1)NC(=O)[C@@H](NC(=O)CNC(=O)[C@H](CCC(=O)O)NC(=O)C(C)(C)NC(=O)[C@@H](N)Cc1ccc(O)cc1)[C@@H](C)O)[C@@H](C)O)C(=O)N[C@@H](Cc1ccc(O)cc1)C(=O)N[C@@H](CC(C)C)C(=O)N[C@@H](CCC(=O)O)C(=O)N[C@@H](CCCCNC(=O)[C@@H](N)CCCCNC(=O)[C@@H](N)CCCCNC(=O)CC[C@H](NC(=O)CCCCCCCCCCCCCCCCCCC(=O)O)C(=O)O)C(=O)N[C@@H](CCC(N)=O)C(=O)N[C@@H](C)C(=O)N[C@@H](C)C(=O)NC(C)(C)C(=O)N[C@@H](CCC(=O)O)C(=O)N[C@@H](Cc1ccccc1)C(=O)N[C@H](C(=O)N[C@@H](CC(N)=O)C(=O)N[C@@H](Cc1c[nH]c2ccccc12)C(=O)N[C@@H](CC(C)C)C(=O)N[C@@H](CC(C)C)C(=O)N[C@@H](C)C(=O)NCC(=O)NCC(=O)N1CCC[C@H]1C(=O)N[C@@H](CO)C(=O)N[C@@H](CO)C(=O)NCC(=O)N[C@@H](C)C(=O)N1CCC[C@H]1C(=O)N1CCC[C@H]1C(=O)N1CCC[C@H]1C(=O)N[C@@H](CO)C(N)=O)C(C)C [Compound 28] (H-Y[Aib]EGTFTSDYSIYLEK([εLys-εLys-γGlu-C20 diacid])QAA[Aib]EFVNWLLAGGPSSGAPPPS-NH2; N-terminus assumed)
- EC50 (mouse GLP-1 receptor): 0.0023 nM
- half-life [3]: 111 h
- EC50 (human glucagon receptor): > 10 nM
- EC50 (mouse GIP receptor): 0.026 nM
- EC50 (human GLP-1 receptor; CRE Luc 0% HSA EC50, 0% HSA): 0.005 nM
- EC50 (human GLP-1 receptor; CRE Luc 1% HSA EC50, 1% HSA): 0.356 nM

Source: patent US20230346961A1, “GLP-1 AND GIP RECEPTOR CO-AGONISTS” (Novo Nordisk A/S, priority 2020, published 2023)
